Drawing on the OligoGym collection, this text covers target mRNA inhibition for 33 sequences.

The target of this series is HSD17B13. Particulars: ASO, HepaRG.

After the bases stand the sugars from the 5' end (letter, count) and the backbone: PS all phosphorothioate, else s phosphorothioate and o phosphodiester by linkage. Methylation of C is not given here. e = 2'-O-(2-methoxyethyl) (MOE); k = constrained ethyl (cEt); d = 2'-deoxy (DNA); m = 2'-O-methyl

On to ACTTTTAGTCAGGTAG (sugars k3 d10 k3, PS), for which the target mRNA inhibition (1 µM) came out at 26%. Same read-out and setting: the same measure for GTCCAAAAGTGTCCTC (sugars k3 d10 k3, PS): 35%; for ATCCAGATCTGCCCTA (sugars k3 d10 k3, PS): 39%.

With AGATCCCGTTCTTGCC (sugars k3 d10 k3, PS), the target mRNA inhibition by setting is: (0.02 µM) 0%; (0.078 µM) 20%; (0.313 µM) 47%; (1 µM) 68%; (1.25 µM) 72%; (5 µM) 76%.

In turn, GTTTTGGGCTAATGAA (sugars k3 d10 k3, PS) returned a target mRNA inhibition (1 µM) of 54%. The same measure, in the same setting: as for GGACCAAGGATATATG (sugars k3 d10 k3, PS), the figure is 56%; as for GATATTCTGTGGCATG (sugars k3 d10 k3, PS), 46%. On the same count and under the same terms, as for “CTGCTAGTGCCAAACC (sugars kkdddddddddkekek, PS)”, the figure is 51%; as for GTTGACCTCAAATGTC (sugars k3 d10 k3, PS), 0%; as for ATGGGATGAGGTAAGG (sugars k3 d10 k3, PS), 46%. For the sequence GCTAAGTATACTTTCT (sugars k3 d10 k3, PS), the target mRNA inhibition (1 µM) was 37%. GCAAAAGGAGCCAGTT (sugars k3 d10 k3, PS) had a target mRNA inhibition (1 µM) of 57%. For the setting “1 µM”, “AGAGAGTAATCAGTTT (sugars k3 d9 k3 e1, PS)” came in with a target mRNA inhibition of 51%.

For the setting “1 µM”, “CTGTGGCATGGCTACA (sugars k3 d1 m1 d8 k3, PS)” yielded a target mRNA inhibition of 35%. On the same count and under the same terms, as for TCATCGATGGAAGAAG (sugars k3 d10 k3, PS), the figure is 24%.

On to TTATTGGTATGGTAAG (sugars k3 d10 k3, PS), for which the target mRNA inhibition (1 µM) was determined as 14%. Consider CTGGGATACTATTCTC (sugars k3 d10 k3, PS), for which the target mRNA inhibition (1 µM) was 57%. With TTATGTAATAGCCAGT (sugars k3 d10 k3, PS), the target mRNA inhibition reads like this: (0.02 µM) 16%; (0.078 µM) 21%; (0.313 µM) 59%; (1 µM) 77%; (1.25 µM) 78%; (5 µM) 89%. The sequence “GAAGTTAGTATAGTTA (sugars k3 d9 k3 e1, PS)” displayed a target mRNA inhibition (1 µM) of 75%. As for TGCTGGAACAATATGG (sugars k3 d10 k3, PS), the target mRNA inhibition (1 µM) is 36%. “GATCTCTTAGCTGTGC (sugars k3 d9 k3 e1, PS)”: under “1 µM”, the target mRNA inhibition is 70%. Same read-out and setting: as for CCCCGAATTATTTCTT (sugars k3 d10 k3, PS), the figure is 35%. Same read-out and setting: the same measure for “GAAATTGATACACCAA (sugars kkdddddddddkekek, PS)”: 68%. For “GTAATAGCCAGTACAG (sugars kkdddddddddkekek, PS)”, the target mRNA inhibition (1 µM) is 47%. As to “TAGTGTAAGCTGAGAG (sugars k3 d1 m1 d8 k3, PS)”, for the setting “1 µM”, the target mRNA inhibition was 31%. With TACACTGACAACCCTT (sugars k3 d10 k3, PS), the target mRNA inhibition (1 µM) is 56%. Same read-out and setting: the same measure for TGTGACGATGTGGCCA (sugars k3 d10 k3, PS): 42%; for “TCACCTTTCATAATGT (sugars k3 d1 m1 d8 k3, PS)”: 47%. Take GGGAGGAGGTACTGTC (sugars k3 d10 k3, PS): the target mRNA inhibition (1 µM) came to 35%. The sequence TGTGAAGAGCTGGTAA (sugars k3 d10 k3, PS) showed a target mRNA inhibition (1 µM) of 41%. Same read-out and setting: the same measure for AGTATTTGGGTGTTCT (sugars k3 d10 k3, PS): 17%.

As to “TGGAATGCTACTTGAA (sugars k3 d9 k3 e1, PS)”, the target mRNA inhibition (1 µM) was determined as 57%. For the setting “1 µM”, CATAAAGGTGGGATAA (sugars k3 d10 k3, PS) showed a target mRNA inhibition of 23%.
